Where two headings read alike, the source gives them in different places.
Columns and labels:
[1] = test system: α–SMA protein in TGF–β1–induced NHLF myofibroblasts; assay: MS/MS α–SMA, NHLF myofibroblast reversal assay; assay type: cell-based, human
Procedure: (§1) Cell culture medium was removed and cells were lysed on ice by adding 5 μl / well of pre–cooled protein extraction buffer containing 10 mM Tris–HCl (pH 8.0), 6 M urea and 2 M thiourea and shaking on ice on a plate shaker at 600 rpm for 30 min.
(§2) Cell lysate was transferred to a 96–well polypropylene–PCR–plate. 15 μl / well denaturation buffer (6 M urea, 50 mM ammonium bicarbonate) and 2 μl / well of 50 mM TCEP were added and samples were denatured for 1 h at 60°C using the Veriti 96–well Fast Thermal Cycler System (Applied Biosystem) with a heated lid. Plates were allowed to cool to RT. Subsequently, 2 μl of 100 mM iodoacetamide were added per well to derivatize cysteine residues. Plates were then sealed and vortexed for 2 min in the dark and incubated for 30 min at 37°C in a thermal cycler with a heated lid. 90 μl of 50 mM ammonium bicarbonate pH 7.8 were added, followed by the addition of 10 μl of trypsin at 0.02 μg / ml. Samples were trypsin–digested overnight at 37°C in a thermal cycler with heated lid. […] Samples were desalted under vacuum using an Oasis HLB 96–well (30 μm particle size, 5 mg sorbent / well) reverse phase cartridge according to the manufacturer’s instructions and eluted with 170 μl of 90% acetonitrile, 0.1% formic acid. Samples were dried down with a flow of nitrogen at 40°C, left to cool to RT and re–suspended in 40 μl 5% acetonitrile, 0.1% formic acid on a plate shaker set to 1400 rpm for 5 min. Plates were centrifuged at 4,000 rpm for 10 min and 2 times 12 μl / well of supernatant were transferred into separate 96–well plates (Greiner Bio–One), sealed and stored at 4°C until analyzed by MS / MS.
(§3) Surrogate tryptic peptides were chosen for detection of COL1 (COL1A1), α–SMA (ACTA) and tubulin (TBA1A1) and crude synthetic peptides were purchased from Thermo Fischer. After several rounds of optimization following standard workflows, […] (COL1 / COL1A1), […] (α–SMA / ACTA) and […] LC–MS / MS analysis was performed on a RapidFire™ RF360 system (Agilent Technologies) coupled to an API 5500 (ABSciex) with positive ion electrospray ionization. […] Detection was performed using multiple reaction monitoring (MRM) mode to monitor parent⟶product ion transitions (m / z). […] The source parameters were curtain gas (CUR) nitrogen: 20 psig; collision gas (CAD): 7 psig; ion source gas 1: 50.0 psig; ion source gas 2: 50.0 psig; ion spray voltage (IS): 5500 V; turbo heater temperature (TEM): 600°C; entrance potential (EP): 10V. Peak areas for COL1A1 and ACTA were normalized by dividing by TBA1A peak area.
(§4) To identify compounds with potential to revert differentiated myofibroblasts to fibroblasts the assay procedures were modified. After 24 h starvation, NHLF cells were stimulated with 5 ng / ml TGF–β1 for 24 h. At t = 24 h TGF–β1 was removed and either vehicle (DMSO) or compounds were added and incubated with the cells for a further 72 h.

[2] = test system: COL1 protein in TGF–β1–induced NHLF myofibroblasts; assay: MS/MS COL1, NHLF myofibroblast reversal assay; assay type: cell-based, human
Procedure: as §1, §2, §3, §4

[3] = test system: normal human lung fibroblasts (NHLF); assay: Phenotypic high-content assay (HCA) of TGF–β1–induced fibroblast–to–myofibroblast differentiation; assay type: cell-based; conditions: NHLF, 5 ng/ml TGF–β1 for 48 h, compound added with TGF–β1, mean ± SD, read-out: HCA IC50
Procedure: (§5) The plate was washed 3 times with starvation medium, e.g. fibroblast basal medium (FBM, Lonza) supplemented with 0.1% faf BSA, 100 units / ml of penicillin and 100 μg / ml of streptomycin and 250 ng / ml amphotericin B, and then starved for 24 h in 30 μl volume. NHLF were differentiated into myofibroblasts by incubation with 5 ng / ml TGF–β1 (from a stock of 20 μg / ml in 4 mM HCl, 1 mg / ml BSA) for 48 h. Compounds were prepared as 5x stocks in starvation medium and added to the starved cells to a final 1x concentration concomitant with TGF–β1 addition. The final DMSO concentration in the assay was 0.6% in all wells. 48 h after TGF–β1 addition, the medium was removed and the cells were fixed in methanol for 10 min at room temperature (RT). After fixation, cells were washed 3 times with 1 x PBS and either stored at 4°C for up to 3 days or further processed. […] Images were acquired on the Opera Phenix confocal high–content screening system (Perkin Elmer) using the 20–x water immersion lens.
(§6) DAPI stained nuclei were used to identify cells. α–SMA and FN regions were then identified and mapped to the corresponding nuclei for background correction, cell segmentation and cell feature computation to identify, classify and weigh over 400 features per cell. The computed features (S1 Table) comprise, but are not limited to, granularity, intensity, texture, area, shape and solidity of a cell in both α–SMA–and FN–expressing regions. The 0% compound effect (5 ng / ml TGF–β1) and the 100% compound effect (0 ng / ml TGF–β1) controls, were used to train and validate a support vector machine (SVM), a supervised learning model with associated learning algorithm that, once successfully validated, was applied to every cell in every well of the assayed microtiter plate. The SVM allowed autonomous weighting and classification of the characteristics and thus enabled the classifier to decide which characteristics were most relevant for the differentiation of the cell types. […] The classification of each cell was aggregated to a cell type ratio per well, represented as the computed percentage effect value per well indicative of the degree of myofibroblast differentiation. E.g. 100% equals complete myofibroblast differentiation, 0% indicates a pure fibroblast population without any signs of differentiation.

[4] = test system: normal human lung fibroblasts (NHLF); assay: Impedance measurement of TGF–β1–induced myofibroblast transition (IPQA), standard assay; assay type: cell-based; conditions: 5 ng/ml TGF–β1, compound added with TGF–β1, impedance at t = 20 h post TGF–β1, mean ± SD, read-out: Impedance IC50
Procedure: (§7) To measure dynamic cell shape and adhesion changes during fibrotic transdifferentiation, NHLF were seeded at a density of 20,000 cells per well in FGM–2 growth medium (Lonza) containing 100 units / ml of penicillin and 100 μg / ml of streptomycin into E–plates with continued impedance signal measurement (xCELLigence system, Roche Applied Science). After overnight growth, the medium was exchanged for FBM (Lonza) supplemented with 100 units / ml of penicillin and 100 μg / ml of streptomycin and 0.1% faf BSA and cells were starved for 32 h. Compound dilution series were added and myofibroblast transition was induced by adding TGF–β1 at a concentration of 5 ng / ml, followed by continued impedance sampling for up to 48 h. For data analysis, impedance raw traces were normalized to the time point of compound addition and the baseline response (DMSO, non–TGF–β1 treated cells) was subtracted. In some cases, impedance values at defined time points were used to generate concentration–response curves to determine compound potency and efficacy using GraphPad Prism software version 7 (GraphPad Software Inc).

[5] = test system: α–SMA protein in NHLF cells; assay: RapidFire MS/MS quantification of α–SMA (IPQA), standard assay; assay type: cell-based, human; conditions: NHLF, 5 ng/ml TGF–β1, lysed 48 h after TGF–β1, normalized to tubulin, mean ± SD, read-out: MS / MS α–SMA IC50
Procedure: as §1, §2, §3

[6] = test system: COL1 protein in NHLF cells; assay: RapidFire MS/MS quantification of COL1 (IPQA), standard assay; assay type: cell-based, human; conditions: NHLF, 5 ng/ml TGF–β1, lysed 48 h after TGF–β1, normalized to tubulin, mean ± SD, read-out: MS / MS COL1 IC50
Procedure: as §1, §2, §3

[7] = test system: normal human lung fibroblasts (NHLF); assay: Nuclear count in the HCA, standard assay; assay type: cell-based; conditions: standard HCA, NHLF, 5 ng/ml TGF–β1, 48 h; read-out: Nuclear count IC50
Procedure: as §5, §6

[8] = test system: TGF–β1–induced NHLF myofibroblasts; assay: cells; assay type: cell-based; conditions: reversal assay: 24 h 5 ng/ml TGF–β1, washed, then compound; impedance data at t = 20 h
Procedure: as §7, §4

[9] = test system: rat lung myofibroblasts (RLMyoF); assay: Impedance in primary myofibroblasts from fibrotic rat lungs; assay type: cell-based, Wistar rat; conditions: S8 Fig
Procedure: Isolation of fibroblasts from the right middle lung lobe of bleomycin–instilled 20–month old Wistar rats. […] On day 0, rats (n = 3) were anesthetized with isoflurane and instilled intra–tracheally with 315 mg of bleomycin sulfate (Baxter) in a volume of 210 μl followed by 210 μl of air to equally distribute the substance in the lung. On day 28, rats were euthanized using isoflurane (5%), exsanguinated and right lung middle lobes (RML) were collected in a sterile culture dish on ice in Dulbecco's Modified Eagle's Medium (DMEM) / F12 (1:1, Thermo Fisher), minced, washed 3 times with DMEM / F12 medium and digested with 0.1% collagenase (Collagenase II–S: Invitrogen) and 15 μg / ml DNase (DNase I, Sigma) in DMEM / F12 medium in a shaking water bath at 37°C for 15 min. Digests were separated by gravity and the supernatant was transferred to a new vial supplemented with 4 volumes of ice–cold starter medium consisting of DMEM / F12 (1:1), 10% (v / v) fetal bovine serum (PAA), 1% (v / v) penicillin / streptomycin 100 U / 100 μg / ml (Thermo Fisher), and insulin / transferrin / sodium selenite (Thermo Fisher). Then, the cell suspension was passed through a cell strainer by centrifugation at 1600 rpm at 4°C for 10 min. The pelleted cells were resuspended in pre–warmed (37°C) starter medium and seeded in a cell culture dish. After 60 minutes, the medium was replaced by new starter medium. After 24 hours, the medium was exchanged for DMEM / F12 to which 10% (v / v) fetal bovine serum and 1% penicillin / streptomycin was added.

| Structure (SMILES) | IC50 [3] [nM] | IC50 [4] [nM] | IC50 [5] [nM] | IC50 [6] [nM] | IC50 ([4]; Fibroblast) [nM] | IC50 ([5]; Homo sapiens) [nM] | also measured |
| --- | --- | --- | --- | --- | --- | --- | --- |
| C=C[C@@]1(C)CC(=O)[C@]2(O)[C@@]3(C)[C@@H](O)CCC(C)(C)[C@@H]3[C@H](O)[C@H](OC(C)=O)[C@@]2(C)O1 [Forskolin] | – | – | – | – | – | – | IC50 ([1]; Homo sapiens, NHLF pre–stimulated 24 h with 5 ng/ml TGF–β1, representative experiment, S7 Fig D, read-out: IC50, reversal of α–SMA (curve of a single experiment)): 5120 nM; IC50 ([2]; Homo sapiens, Col1, NHLF pre–stimulated 24 h with 5 ng/ml TGF–β1, representative experiment, S7 Fig E, read-out: IC50, reversal of COL1 (curve of a single experiment)): 1720 nM |
| COc1cc(O)c2c(c1)/C=C/C[C@H](O)[C@H](O)C(=O)/C=C\C[C@H](C)OC2=O [5Z–7–Oxozeaenol] | 2600 | 250 ± 170 | 300 ± 270 | 460 ± 270 | – | – | – |
| CC[C@@H](C(=O)[C@@H](C)[C@@H](O)[C@H](C)[C@@H]1O[C@@H]([C@@H](CC)C(=O)O)CC[C@@H]1C)[C@H]1O[C@]2(C=C[C@@H](O)[C@]3(CC[C@@](C)([C@H]4CC[C@](O)(CC)[C@H](C)O4)O3)O2)[C@H](C)C[C@@H]1C [Salinomycin] | – | – | – | – | 1500 | 290 ± 300 | IC50 ([3]; Homo sapiens, Fibroblast): 15800 nM; IC50 ([6]; Homo sapiens, Col1): 1200 nM |
| Cn1c(=O)c(Oc2ccc(F)cc2F)cc2cnc(NC(CCO)CCO)nc21 [Pamapimod] | – | – | – | – | 19000 | 34000 | IC50 ([3]; Homo sapiens, Fibroblast, 48 h): > 46000 nM; IC50 ([6]; Homo sapiens, Col1): > 50000 nM |
| CCn1c(-c2nonc2N)nc2cnc(Oc3cccc(NC(=O)c4ccc(OCCN5CCOCC5)cc4)c3)cc21 [GSK–269962] | 240 ± 270 | 1010 | 22 ± 1 | 3100 | – | – | IC50 [7]: > 50000 nM; IC50 [8]: > 10000 nM; IC50 ([1]; reversal assay: 24 h 5 ng/ml TGF–β1, washed, 72 h compound, normalized to tubulin, read-out: MS / MS α–SMA IC50): 35 nM; IC50 ([2]; reversal assay: 24 h 5 ng/ml TGF–β1, washed, 72 h compound, normalized to tubulin, read-out: MS / MS COL1 IC50): 537 nM; IC50 ([9]; read-out: RLMyoF impedance IC50 (3 h), impedance at 3 h): 11 nM; IC50 ([9]; read-out: RLMyoF impedance IC50 (20 h), impedance at 20 h): 133 nM |
| COc1cccc(-c2cc(=O)c3ccccc3o2)c1N [PD98059] | > 46000 | 19000 | 50000 | > 50000 | – | – | – |
| Cc1ccccc1-n1c(Cn2cnc3c(N)ncnc32)nc2cccc(C)c2c1=O [IC–87114] | 44000 | > 5000 | > 5000 | 4900 | – | – | – |
| O=c1cc(N2CCOCC2)oc2c(-c3ccccc3)cccc12 [LY294002] | – | – | – | – | 13000 | 27000 | IC50 ([3]; Homo sapiens, Fibroblast, 48 h): 2400 nM; IC50 ([6]; Homo sapiens, Col1, 48 h): 45000 nM |
| Cc1cccc(-c2[nH]c(C(C)(C)C)nc2-c2ccc3nccnc3c2)n1 [SB525334] | 2500 | 120 ± 25 | 90 ± 5 | 380 ± 110 | – | – | – |
| CN(C)Cc1cccc(N/C(=C2\C(=O)Nc3cc(C(=O)N(C)C)ccc32)c2ccccc2)c1 [BIX 02189] | 22000 | 6000 | 14000 | 6500 | – | – | – |

From PMC6261607, “Novel high–throughput myofibroblast assays identify agonists with therapeutic potential in pulmonary fibrosis that act via EP2 and EP4 receptors” (PLoS ONE, 2018)
